Legend:
[1] = tested on: Salm. Typhimurium S29; test: Bioscreen growth inhibition test; format: cell-based, Salmonella Typhimurium; conditions: BS010411, 24 h/30° C.
Method: (§1) For broth cultures and Bioscreen testing most bacteria were grown in Brain Heart Infusion (BHI, Oxoid, pH 7.4). Lactobacillus sake A10 was grown in de Man, Rogosa, Sharpe medium ([…], Oxoid). Yeasts were grown in Sabouraud Liquid medium (SLM, Oxoid). Most bacteria were cultured at 30° C. Lactic acid bacteria were grown on solid medium in enriched CO2 atmosphere. Clostridium species were grown in Reinforced Clostridial Medium (RCM) at 37° C. anaerobically. Brochothrix thermosphacta fungi and yeasts were grown at 25° C. Fungi were cultured on Malt Extract Agar (MEA, Oxoid).
(§2) An automated Microbiology Reader Bioscreen C was used to measure growth curves of the strains in the presence and absence of APP. The Bioscreen C measures the development of turbidity (i.e. growth) kinetically by vertical photometry in 200 wells of a honeycomb microtitre plate, simultaneously. The system consists of a Bioscreen C analyser, which is an incubator and measurement unit, integrated with a PC, software (BioLink v 5.30), printer and a ‘Honeycomb 2’ cuvette multiwell plate. Growth curve data can be analysed within the BioLink software or exported to programs such as Excel.
(§3) Broth culture media were dispensed in 270 μl volumes into the wells as directed. Serial dilutions of a filter-sterilised APP stock solution were then dispensed into the same wells, as appropriate. The wells were inoculated with 30 μl of an appropriately diluted overnight broth culture or spore suspension, to give a final inoculum level of […]. The tests were incubated in the Bioscreen C for either 24 h at 30° C., or 72 h at 25° C. (depending on the micro-organism under investigation) with readings taken every 20 minutes after the trays were shaken. After the incubation period was complete the data were exported to Excel for analysis.

[2] = tested on: S cerevisiae H78; test: Bioscreen growth inhibition test; format: cell-based, Saccharomyces cerevisiae; conditions: APP 213, BS010420, 72 h/25° C.
Method: as §1, §2, §3

[3] = tested on: S. cerevisiae ATCC9763; test: Bioscreen growth inhibition test; format: cell-based, Saccharomyces cerevisiae; conditions: APP 213, BS010420, 72 h/25° C.
Method: as §1, §2, §3

[4] = tested on: B. nivea 163642; test: Test in apple juice; format: cell-based; conditions: apple juice (pH 3.42) at 25° C., TAJ010530
Method: (§4) 8.9 ml apple juice samples (pH 3.42) were prepared and autoclaved. Batch number APP20010215 (at 138 mg/ml) was used to prepare filter-sterilised stock solutions for 1 ml addition to the juice to achieve 0, 1000, 2000 ppm APP. Tests were inoculated with 100 μl of an appropriately diluted overnight SLM broth of yeast culture or ascospore suspension of Byssochlamys spores prepared earlier. The tests were incubated at 25° C., and examined daily for signs of growth (e.g. turbidity, mycelium development).

[5] = tested on: Byssochlamys fulva 040021; test: Test in apple juice; format: cell-based; conditions: apple juice (pH 3.42) at 25° C., TAJ010530
Method: as §4

[6] = tested on: Candida parapsilosis 458; test: Test in apple juice; format: cell-based; conditions: apple juice (pH 3.42) at 25° C., TAJ010530
Method: as §4

[7] = tested on: Hanseniaspora uvarum CBS5074; test: Test in apple juice; format: cell-based; conditions: for Growth inhibition: apple juice (pH 3.42) at 25° C., TAJ010530
Method: as §4

[8] = tested on: Rhodotorula mucilaginosa var mucilaginosa CBS8161; test: Test in apple juice; format: cell-based; conditions: for Growth inhibition: apple juice (pH 3.42) at 25° C., TAJ010530
Method: as §4

[9] = tested on: Zygosaccharomyces bailii CRA229; test: Test in apple juice; format: cell-based; conditions: for Growth controlled for: apple juice (pH 3.42) at 25° C., TAJ010530
Method: as §4

[10] = tested on: Ps. fluorescens; test: Test in milk; format: cell-based, Pseudomonas fluorescens; conditions: for Control for: 2000 ppm, TMGB010605
Method: 8.9 ml samples of UHT milk containing 0.5% glucose and the indicator bromocresol purple (0.01%) were prepared and sterilised by autoclaving. The pH before APP addition was pH 6.65. Appropriate stock solutions of APP batch number APP20010215 (at 138 mg/ml) were prepared and filter sterilised. 1 ml of each was added to the milk to prepare tests containing 0, 1000 and 2000 ppm APP. Tests were then inoculated with 100 μl of diluted overnight broth cultures or spore suspensions to give a final inoculum level of ca. 10^3 cfu/ml. These and uninoculated tests were incubated at 20 and 8° C. and examined daily for visible changes compared to uninoculated control.

[11] = tested on: L. monocytogenes 272; test: Test in cooked minced chicken slurry; format: cell-based, Listeria monocytogenes
Method: 1 kg of minced chicken (mainly lean meat) was purchased from the local butcher. This was mixed with 1 litre of BHI, mixed and dispensed as 100 g samples prior to autoclaving. When still warm, the meat was re-mixed thoroughly. When cooked, the meat was inoculated with 1 ml of 10^5 spores or cells (from an overnight broth), and re-mixed. The samples were then divided into 3×25 g portions, to which 0.5 ml of filter-sterilised APP20010215 was added (as 5% or 10% stock solutions) or water. An initial viable count was taken, and the samples then incubated at 8° C. and tested twice weekly. The pH of the chicken slurry was 6.42.

[12] = tested on: TAVC; test: Uninoculated test in raw meat; format: cell-based; conditions: 2000 ppm APP; for Viable counts: raw meat at 8° C.
Method: […] of raw minced beef was purchased from the local butcher. 10 g of either a 2% (20,000 ppm) stock solution of APP2001213 or water was added, and the meat mixed thoroughly. Initial counts were carried out, and then the meat was incubated at 8° C. and sampled for 3 consecutive days. The pH of the raw meat was 5.3.

[13] = cited from earlier work

Compound: O=C1CC(CO)OC=C1O (stereo not drawn) [APP, Ascopyrone P]
- APP level causing significant inhibition ([1]; APP 20010213): 2000 ppm
- APP level causing total inhibition ([1]; APP 20010213): 4000 ppm
- APP level causing significant inhibition ([1]; APP 20010215): 2000 ppm
- APP level causing total inhibition ([1]; APP 20010215): >4000 ppm
- APP level causing significant inhibition [2]: 4000
- APP level causing total inhibition [2]: >4000
- APP level causing significant inhibition [3]: Enhanced growth
- APP level causing total inhibition [3]: >4000
- Growth inhibition ([4]; 1000 ppm): No growth inhibition
- Growth inhibition ([4]; 2000 ppm): No growth inhibition
- Growth inhibition ([5]; 1000 ppm): No growth inhibition
- Growth inhibition ([5]; 2000 ppm): No growth inhibition
- Growth inhibition ([6]; 1000 ppm): No growth inhibition
- Growth inhibition ([6]; 2000 ppm): No growth inhibition
- Growth inhibition ([7]; 1000 ppm): No growth inhibition
- Growth inhibition ([7]; 2000 ppm): No growth inhibition
- No inhibition (effect on growth of target organism by 2000 ppm APP) ([7]; Apple juice at ambient pH 3.4): H. uvarum
- Growth inhibition ([8]; 1000 ppm): No growth inhibition
- Growth inhibition ([8]; 2000 ppm): No growth inhibition
- No inhibition (effect on growth of target organism by 2000 ppm APP) ([8]; Apple juice at ambient pH 3.4): Rh. mucilaginosa
- Growth controlled for ([9]; 1000 ppm): 34 days
- Growth controlled for ([9]; 2000 ppm): 34 days
- Partial inhibition (effect on growth of target organism by 2000 ppm APP) ([9]; Apple juice at ambient pH 3.4): Z. bailii
- Control for ([10]; milk at 8° C.): > 7 days
- Control for ([10]; milk at 20° C.): 2 to 3 days
- Total inhibition (effect on growth of target organism by 2000 ppm APP) ([10]; Milk at 8° C. pH 6.65): Ps. fluorescens
- Partial inhibition (effect on growth of target organism by 2000 ppm APP) ([10]; Milk at 20° C. pH 6.65): Ps. fluorescens
- Effect on growth ([11]; 2000 ppm, minced chicken slurry at 8° C., pH 6.42, TCC010704): Slight inhibition by 2000 ppm only
- No inhibition (effect on growth of target organism by 2000 ppm APP) ([11]; Cooked minced chicken slurry at 8° C. pH 6.42, organism printed in brackets): (L. monocytogenes)
- Viable counts ([12]; day 0, TRM010521): 9.3 × 10^6 cfu/g
- Viable counts ([12]; day 1, TRM010521): 2.2 × 10^8 cfu/g
- Viable counts ([12]; day 2, TRM010521): 1.5 × 10^8 cfu/g
- Viable counts ([12]; day 3, TRM010521): 5.0 × 10^8 cfu/g
- Counts in control and APP samples ([12]; uninoculated raw meat at 8° C., pH 5.3): identical
- pH at which stable ([13]; less stable at increasing pH): 1.5-5.5
- half-life ([13]; pH 11-12.5): 5 h

— patent US20030203963A1, “Antimicrobial agent” (priority 2001, published 2003)
